For assay [1], the system named is IL-1. The assay can be described thus: LPS induced IL-1 cell based assay (LPS-activated monocytes). To be noted: Homo sapiens, Monocyte. The method, then: Lipopolysaccharide-Activated Monocyte TNF Production Assay
Test compounds were evaluated in vitro for the ability to inhibit the production of TNF by monocytes activated with bacterial lipopolysaccharide (LPS). Fresh residual source leukocytes (a byproduct of plateletpheresis) were obtained from a local blood bank, and peripheral blood mononuclear cells (PBMCs) were isolated by density gradient centrifugation on Ficol-Paque Plus (Pharmacia). PBMCs were suspended at 2×10^6/mL in DMEM supplemented to contain 2% FCS, 10 mM, 0.3 mg/mL […], 100 U/mL penicillin G and […] streptomycin sulfate (complete media). Cells were plated into Falcon flat bottom, 96 well culture plates (200 μL/well) and cultured overnight at 37° C. and 6% CO2. Non-adherent cells were removed by washing with 200 μl/well of fresh medium. Wells containing adherent cells (˜70% monocytes) were replenished with 100 μL of fresh medium.
Preparation of Test Compound Stock Solutions
Test compounds were dissolved in […]. Compound stock solutions were prepared to an initial concentration of […]. Stocks were diluted initially to 20-200 μM in complete media. Nine two-fold serial dilutions of each compound were then prepared in complete medium.
Treatment of Cells with Test Compounds and Activation of TNF Production with Lipopolysaccharide
One hundred microliters of each test compound dilution were added to microtiter wells containing adherent monocytes and 100 μL complete medium. Monocytes were cultured with test compounds for 60 min at which time 25 μL of complete medium containing 30 ng/mL lipopolysaccharide from E. coli K532 were added to each well. Cells were cultured an additional 4 hrs. Culture supernatants were then removed and TNF presence in the supernatants was quantified using an ELISA. […]
Standard curve data were fit to a second order polynomial and unknown TNF-α concentrations determined from their OD by solving this equation for concentration. TNF concentrations were then plotted vs. test compound concentration using a second order polynomial. This equation was then used to calculate the concentration of test compounds causing a 50% reduction in TNF production.
Compounds of the invention can also be shown to inhibit LPS-induced release of IL-1β, IL-6 and/or IL-8 from monocytes by measuring concentrations of IL-1β, IL-6 and/or IL-8 by methods well known to those skilled in the art. […] Thus, the compounds of the invention may lower elevated levels of TNF-α, IL-1, IL-6, and IL-8 levels. Reducing elevated levels of these inflammatory cytokines to basal levels or below is favorable in controlling, slowing progression, and alleviating many disease states.

The target of assay [2] is p38 (Homo sapiens, UniProt Q16539). The experiment in a line: p38 in-vitro HTRF enzyme assay. The class given is biochemical. To be noted: recombinant human enzyme; range symbols; read-out: p38 enyme HTRF assay IC50. As for the experimental part: p38 In-Vitro HTRF Enzyme Assay
The compounds of the invention can be tested for their respective affinities for the p38 protein using a conventional p38 in-vitro enzyme activity assay. For example, a P38-alpha HTRF assay may be used to measure the protein's in-vitro phosphorylation activity, and the data analyzed using time resolved fluorimetry techniques (FRET). A p38 HTRF assay is as follows. The kinase reaction buffer for p38α, p38β, p38δ and p38γ HTRF assays consists of 50 mM Tris-pH 7.5, 5 mM MgCl2, 0.1 mg/mL BSA, 100 μM Na3VO4 and 0.5 mM DTT. The HTRF detection buffer contains 100 mM HEPES-pH 7.5, 100 mM NaCl, 0.1% BSA, 0.05% Tween-20, and 10 mM EDTA. Each compound was dissolved in 100% DMSO and serially diluted (3 fold, 10 point) in a polypropylene 96-well microtiter plate (drug plate). The final starting concentration of the compound in the p38α and p38β enzymatic assays was about 1 μM. The final starting concentration of each compound in the p38δ and p38γ enzymatic assays was about 10 μM. The p38α, p38β, p38δ and p38γ kinase reactions were carried out in a polypropylene 96-well black round bottom assay plate in total volume of 30 μL kinase reaction buffer. Appropriate concentration of purified and activated enzyme (recombinant human) was mixed with indicated concentration of ATP and 100 nM GST-ATF2-Avitag, in the presence or absence (HI control) of each compound. In the absence of enzyme, the background was measured as LO control. HI controls and LO controls contained only DMSO. The reaction was allowed to incubate for 1 hour at RT. […] After 60 minutes incubation at room temperature, the assay plate was read in a Discovery Plate Reader. […] The resulting data was analyzed by taking the proportion of substrate phosphorylated in the kinase reaction in the presence of each individual compound and comparing it with that phosphorylated in the presence of DMSO vehicle alone (HI control). The data was calculated using the formula: % control (POC)=(compound−average LO)/(average HI−average LO)*100. […] All results were expressed as the mean±the standard error of the mean. Data acquisition and non-linear regression algorithms were performed using Activity Base v5.2 and XLfit software v4.1 respectively. Additional assay information may be obtained in Park Y W, Cummings R T, Wu L, et al. Homogeneous Proximity Tyrosine Kinase Assays Scintillation Proximity Assay versus Homogeneous Time-Resolved Fluorescence. Analytical Biochemistry.

The test system of assay [3] is THP1 cells. The experiment in a line: Lipopolysaccharide-activated THP1 cell TNF production assay (THP1 cell based). To be noted: Homo sapiens, THP-1, LPS-induced TNF-α. The method, then: Lipopolysaccharide-Activated THP1 Cell TNF Production Assay
THP1 cells are resuspended in fresh THP1 media (RPMI 1640, 10% heat-inactivated FBS, 1XPGS, 1XNEAA, plus 30 μM PME) at a concentration of 1E6/mL. One hundred microliters of cells per well are plated in a polystyrene 96-well tissue culture. One microgram per mL of bacterial LPS is prepared in THP1 media and is transferred to the wells. Test compounds are dissolved in 100% DMSO and are serially diluted 3-fold in a polypropylene 96-well microtiter plate (drug plate). HI control and LO control wells contain only DMSO. One microliter of test compound from the drug plate followed by 10 μL of LPS are transferred to the cell plate. The treated cells are induced to synthesize and secrete TNF-α at 37° C. for 3 h. Forty microliters of conditioned media are transferred to a 96-well polypropylene plate containing 110 μL of ECL buffer (50 mM Tris-HCl pH 8.0, 100 mM NaCl, 0.05% Tween 20, 0.05% NaN3 and 1% FBS) supplemented with 0.44 nM MAB610 monoclonal Ab (R&D Systems), 0.34 nM ruthenylated AF210NA polyclonal Ab (R&D Systems) and 44 μg/mL sheep anti-mouse M280 Dynabeads (Dynal). After a 2 h incubation at room temperature with shaking, the reaction is read on the ECL M8 Instrument (IGEN Inc.). A low voltage is applied to the ruthenylated TNF-α immune complexes, which in the presence of TPA (the active component in Origlo), results in a cyclical redox reaction generating light at […]. The amount of secreted TNF-α in the presence of compound compared with that in the presence of DMSO vehicle alone (HI control) is calculated using the formula: % control (POC)=(cpd−average LO)/(average HI−average LO)*100. Data (consisting of POC and inhibitor concentration in μM) is fitted to a 4-parameter equation (y=A+((B−A)/(1+((x/C)^D))), where A is the minimum y (POC) value, B is the maximum y (POC), C is the x (cpd concentration) at the point of inflection and D is the slope factor) using a Levenburg-Marquardt non-linear regression algorithm.

Each structure is given as a SMILES string. A value given as a limit tells only on which side of the number the result lay.

Sequence of p38 (Q16539 whole entry): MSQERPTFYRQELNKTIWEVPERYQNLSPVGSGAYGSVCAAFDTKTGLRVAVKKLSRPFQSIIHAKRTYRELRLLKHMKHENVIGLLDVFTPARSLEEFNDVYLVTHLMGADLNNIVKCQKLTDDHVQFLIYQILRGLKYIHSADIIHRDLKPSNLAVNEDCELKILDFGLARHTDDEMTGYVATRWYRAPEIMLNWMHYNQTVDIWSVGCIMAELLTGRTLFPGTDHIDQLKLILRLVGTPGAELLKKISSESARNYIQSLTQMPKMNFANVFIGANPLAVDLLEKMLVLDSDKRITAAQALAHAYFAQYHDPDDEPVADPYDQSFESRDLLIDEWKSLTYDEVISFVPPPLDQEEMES

For the compound `Cc1ccc(C(=O)NC2CC2)cc1Nc1cc(=O)n(C)c2c1cnn2-c1cccc(F)c1` [Example 4, N-cyclopropyl-3-((1-(3-fluorophenyl)-7-methyl-6-oxo-6,7-dihydro-1H-pyrazolo[3,4-b]pyridin-4-yl)amino)-4-methylbenzamide], the IC50 in assay [1] (range symbols), in assay [2] and in assay [3] (range symbols) was less than 25 nM throughout.

Turning to `Cc1ccc(C(=O)NC2CC2)cc1Oc1cc(=O)n(C)c2c1cnn2-c1cccc(F)c1` [Example 5, N-cyclopropyl-3-((1-(3-fluorophenyl)-7-methyl-6-oxo-6,7-dihydro-1H-pyrazolo[3,4-b]pyridin-4-yl)oxy)-4-methylbenzamide], the results for the IC50 in assay [1] (range symbols), in assay [2] and in assay [3] (range symbols) were 100 to 249 nM, less than 25 nM and less than 25 nM, respectively.

In the case of `Cn1c(=O)cc(Nc2cc(C(=O)NC3CC3)ccc2F)c2cnn(-c3ccc(F)cc3F)c21` [Example 7, N-cyclopropyl-3-((1-(2,4-difluorophenyl)-7-methyl-6-oxo-6,7-dihydro-1H-pyrazolo[3,4-b]pyridin-4-yl)amino)-4-fluorobenzamide], the IC50 in assay [1] (range symbols) was 25 to 99 nM; in assay [2], less than 25 nM; in assay [3] (range symbols) it was less than 25 nM.

Regarding `Cc1ccncc1Nc1cc(=O)n(C)c2c1cnn2-c1cc(F)ccc1F` [Example 8, 1-(2,5-difluorophenyl)-7-methyl-4-((4-methyl-3-pyridinyl)amino)-1,7-dihydro-6H-pyrazolo[3,4-b]pyridin-6-one], the IC50 in assay [1] (range symbols) is 250 to 999 nM; in assay [2] it was 1000 to 5000 nM; in assay [3] (range symbols), 100 to 249 nM.

For the compound `Cn1c(=O)cc(Nc2ccc(F)cc2F)c2cnn(-c3ccc(F)cc3F)c21` [Example 9, 1-(2,4-difluorophenyl)-4-((2,4-difluorophenyl)amino)-7-methyl-1,7-dihydro-6H-pyrazolo[3,4-b]pyridin-6-one], the IC50 was 1000 to 5000 nM in assay [1] (range symbols), 1000 to 5000 nM in assay [2] and 250 to 999 nM in assay [3] (range symbols).

For `Cn1c(=O)cc(Nc2ccc(F)cc2)c2cnn(-c3c(F)cccc3F)c21` [Example 10, 1-(2,6-difluorophenyl)-4-((4-fluorophenyl)amino)-7-methyl-1,7-dihydro-6H-pyrazolo[3,4-b]pyridin-6-one], the figures for the IC50 in assay [1] (range symbols), in assay [2] and in assay [3] (range symbols) were 1000 to 5000 nM, 1000 to 5000 nM and 250 to 999 nM, respectively.

In the case of `Cn1c(=O)cc(Nc2cc(C(=O)NC3CC3)ccc2Cl)c2cnn(-c3ccc(F)cc3F)c21` [Example 13, 4-chloro-N-cyclopropyl-3-((1-(2,4-difluorophenyl)-7-methyl-6-oxo-6,7-dihydro-1H-pyrazolo[3,4-b]pyridin-4-yl)amino)benzamide], the concentration for half-maximal inhibition (IC50) in assay [1] (range symbols) and in assay [3] (range symbols) was less than 25 nM each time.

For `Cc1ccc(C(=O)NC2CC2)cc1Nc1cc(=O)n(C)c2c1cnn2-c1ccc(F)cc1F` [Example 14, N-cyclopropyl-3-((1-(2,4-difluorophenyl)-7-methyl-6-oxo-6,7-dihydro-1H-pyrazolo[3,4-b]pyridin-4-yl)amino)-4-methylbenzamide], the IC50 in assay [1] (range symbols) and in assay [3] (range symbols) was less than 25 nM each time.

In the case of `Cc1ccc(C(=O)NC(C)(C)C)cc1Nc1cc(=O)n(C)c2c1cnn2-c1ccc(F)cc1F` [Example 25, N-tert-butyl-3-((1-(2,4-difluorophenyl)-7-methyl-6-oxo-6,7-dihydro-1H-pyrazolo[3,4-b]pyridin-4-yl)amino)-4-methylbenzamide], the figures for the IC50 in assay [1] (range symbols) and in assay [3] (range symbols) were 100 to 249 nM and 25 to 99 nM, respectively.

For `Cn1c(=O)cc(Oc2cc(C(=O)NC3CC3)ccc2Cl)c2cnn(-c3cc(F)ccc3F)c21` [Example 26, 4-chloro-N-cyclopropyl-3-((1-(2,5-difluorophenyl)-7-methyl-6-oxo-6,7-dihydro-1H-pyrazolo[3,4-b]pyridin-4-yl)oxy)benzamide], the IC50 in assay [1] (actual values) came out at 101 nM; in assay [3] (actual values), 8.2 nM.

The record behind these values is patent publication US8080546B2, “Pyrazolo-pyridinone derivatives and methods of use” (Amgen Inc., priority 2007, dated 2011).
